pEC50: −log10 of the molar value. Several values for one entry are separate records, joined by “and”; a condition that tells them apart may be missing. Identical values can stand only once. Counter-ions that a name gives are not always drawn. Like-named read-outs stand apart in the source and are kept apart here.
Assays:
[1] = test system: p53 signaling (p53RE-bla HCT-116 cells)
[2] = test system: p53 signaling (p53RE-bla HCT-116 cells); assay: cells; type: cell-based
[3] = test system: p53 signaling (p53RE-bla HCT-116 cells); remark: listed apart in the source
[4] = test system: p53RE-bla HCT-116 cells
[5] = Homo sapiens, HCT-116, read-out: p53 activation EC50, cherry pick confirmation
[6] = Homo sapiens, HCT-116, read-out: p53 activation EC50, primary screening
[7] = Homo sapiens, HCT-116, read-out: p53 activation efficacy, cherry pick confirmation
[8] = Homo sapiens, HCT-116, read-out: p53 activation efficacy, primary screening
[9] = read-out: EC50, p53 activation, primary screening
[10] = read-out: EC50, viability, cherry pick confirmation
[11] = read-out: EC50, viability, primary screening
[12] = read-out: p53 activation EC50, cherry pick confirmation

SMILES | p53 activation EC50, cherry pick confirmation [1] | p53 activation EC50, primary screening [1] | p53 activation efficacy, cherry pick confirmation [1] | p53 activation EC50, cherry pick confirmation [3] | p53 activation efficacy, cherry pick confirmation [3] | Viability EC50, cherry pick confirmation [4] | Viability EC50, primary screening [4] | Viability efficacy, cherry pick confirmation [4] | Viability efficacy, primary screening [4] | EC50, p53 activation, cherry pick confirmation [1] | EC50, p53 activation, primary screening [1] | Efficacy, p53 activation, cherry pick confirmation [1] | Efficacy, p53 activation, primary screening [1] | EC50, p53 activation, cherry pick confirmation [2] | Efficacy, p53 activation, cherry pick confirmation [2] | EC50, p53 activation, cherry pick confirmation [3] | EC50, p53 activation, primary screening [3] | Efficacy, p53 activation, cherry pick confirmation [3] | Efficacy, p53 activation, primary screening [3] | EC50, viability, cherry pick confirmation [4] | further results
CCN(CC)CCCC(C)Nc1c2ccc(Cl)cc2nc2ccc(OC)cc12 (stereo not shown) [Quinacrine dihydrochloride dihydrate] | inactive | inactive | inactive | inactive | inactive | inactive | inactive | inactive | inactive | – | – | – | – | – | – | – | – | – | – | – | p53 activation efficacy, primary screening [1]: inactive; pEC50 [2, 5]: 5.08; pEC50 [2, 6]: 4.68; Emax [2, 7]: 271%; Emax [2, 8]: 79.8%; p53 activation EC50, primary screening [3]: inactive; p53 activation efficacy, primary screening [3]: inactive
CC(CN1CC(=O)NC(=O)C1)N1CC(=O)NC(=O)C1 (stereo not shown) [Razoxane] | inactive | inactive | inactive | inactive | inactive | inactive | inactive | inactive | inactive | – | – | – | – | – | – | – | – | – | – | – | p53 activation efficacy, primary screening [1]: inactive; pEC50 [2, 5]: 4.68; pEC50 [2, 6]: 4.94; Emax [2, 7]: 31.9%; Emax [2, 8]: 60.2%; p53 activation EC50, primary screening [3]: inactive; p53 activation efficacy, primary screening [3]: inactive
NC(=O)c1ncn([C@@H]2O[C@H](CO)[C@@H](O)[C@H]2O)n1 [Ribavirin] | inactive | inactive | inactive | inactive | inactive | inactive | inactive | inactive | inactive | – | – | – | – | – | – | – | – | – | – | – | p53 activation efficacy, primary screening [1]: inactive; pEC50 [2, 5]: 4.97; pEC50 [2, 6]: 4.61; Emax [2, 7]: 43.7%; Emax [2, 8]: 31.4%; p53 activation EC50, primary screening [3]: inactive; p53 activation efficacy, primary screening [3]: inactive
O=[Se](O)O [Selenious acid] | – | – | – | – | – | – | – | – | – | inactive | inactive | inactive | inactive | inactive | inactive | inactive | inactive | inactive | inactive | inactive | Efficacy, p53 activation, primary screening [2]: 32.672; pEC50 [2, 9]: 4.35; EC50, viability, primary screening [4]: inactive; pEC50 [4, 10]: 4.59; pEC50 [4, 11]: 4.37
COc1cccc2c1cc([N+](=O)[O-])c1c(C(=O)[O-])cc3c(c12)OCO3.[Na+] [Sodium aristolochate-I] | – | – | – | – | – | – | – | – | – | inactive | inactive | inactive | inactive | inactive | inactive | inactive | inactive | inactive | inactive | inactive | Efficacy, p53 activation, primary screening [2]: 50.4333; pEC50 [2, 9]: 5.44; EC50, viability, primary screening [4]: inactive; Efficacy, viability, primary screening [4]: inactive; pEC50 [4, 10]: 5.01
Oc1c(Cl)cc(Cl)cc1Sc1cc(Cl)cc(Cl)c1O [Sodium bithionolate] | – | – | – | – | – | – | – | – | – | inactive | inactive | inactive | inactive | inactive | inactive | inactive | inactive | inactive | inactive | inactive | Efficacy, p53 activation, primary screening [2]: 34.4493; pEC50 [2, 9]: 4.76; EC50, viability, primary screening [4]: inactive; pEC50 [4, 10]: 4.33 and 4.41; pEC50 [4, 11]: 4.36 and 4.34
CC(C)CP(=S)([S-])CC(C)C.[Na+] [Sodium diisobutyldithiophosphinate] | inactive | – | inactive | inactive | inactive | inactive | inactive | inactive | inactive | – | – | – | – | – | – | – | – | – | – | – | p53 activation EC50, primary screening [2]: inactive; p53 activation efficacy, cherry pick confirmation [2]: 36.227; p53 activation efficacy, primary screening [2]: inactive; pEC50 [2, 12]: 5.65
NS(=O)(=O)O [Sulfamic acid] | inactive | inactive | inactive | inactive | inactive | inactive | inactive | inactive | inactive | – | – | – | – | – | – | – | – | – | – | – | p53 activation EC50, cherry pick confirmation [2]: inactive; p53 activation EC50, primary screening [2]: inactive; p53 activation efficacy, cherry pick confirmation [2]: inactive; p53 activation efficacy, primary screening [2]: inactive; pEC50 ([3]; read-out: p53 activation EC50, primary screening): 4.62
CCCSP(=S)(OCC)Oc1ccc(SC)cc1 (stereo not shown) [Sulprofos] | inactive | – | – | – | – | inactive | inactive | inactive | inactive | – | – | – | – | – | – | – | – | – | – | – | p53 activation EC50, cherry pick confirmation [2]: inactive; p53 activation EC50, primary screening [2]: inactive; p53 activation efficacy, cherry pick confirmation [2]: inactive; p53 activation efficacy, primary screening [2]: inactive; pEC50 [3, 12]: 5.16
CCOC(=O)NC(=S)Nc1ccccc1NC(=S)NC(=O)OCC [Thiophanate] | – | – | – | – | – | – | – | – | – | inactive | inactive | inactive | inactive | inactive | inactive | inactive | inactive | inactive | inactive | inactive | pEC50 ([2]; Homo sapiens, HCT-116, read-out: EC50, p53 activation, primary screening): 4.39; Emax ([2]; Homo sapiens, HCT-116, read-out: Efficacy, p53 activation, primary screening): 70.2%; EC50, viability, primary screening [4]: inactive; Efficacy, viability, cherry pick confirmation [4]: inactive; Efficacy, viability, primary screening [4]: inactive
CCOC(=O)c1c(N)sc2c1CCN(Cc1ccccc1)C2 [Tinoridine] | – | – | – | – | – | – | – | – | – | – | – | – | – | – | – | – | – | – | – | – | p53 activation EC50 [1]: inactive; p53 activation EC50 [2]: inactive; p53 activation efficacy [2]: inactive; p53 activation EC50 [3]: inactive; Viability EC50 [4]: inactive; Viability efficacy [4]: inactive

Reference: publication PMC9151520 (Archives of Toxicology, 2022)
